For assay [1], the target named is T1, CDK1/CycB (Homo sapiens, UniProt P06493).
T1 construct: GST; purchased ProQinase GmbH, Freiburg; host or cells: baculovirus-infected insect cells (Sf9)
Nature of the assay: CDK1/CycB Kinase Assay. Type of assay: biochemical. The following applies: histone IIIS substrate, 33P-ATP, 15 minutes at 22° C. As for the experimental part:
Recombinant CDK1- and CycB-GST-fusion proteins, purified from baculovirus-infected insect cells (Sf9), were purchased from ProQinase GmbH, Freiburg. Histone IIIS, used as a kinase substrate, is available commercially from the Sigma Company.
The reaction was stopped by adding EDTA solution (250 mmol, pH 8.0, 14 μl/measuring point).
(§1) From each reaction batch, 10 μl was applied to P30 filter strips (Wallac Company), and non-incorporated 33P-ATP was removed by subjecting the filter strips to three washing cycles for 10 minutes each in 0.5% phosphoric acid. After the filter strips were dried for one hour at 70° C., the filter strips were covered with scintillator strips (MeltiLex™ A, Wallac Company) and baked for one hour at 90° C. The amount of incorporated 33P (substrate phosphorylation) was determined by scintillation measurement in a gamma-radiation measuring device (Wallac).

Assay [2] deals with T2, CDK2/CycE (Homo sapiens, UniProt P24941).
T2 construct: GST; purchased ProQinase GmbH, Freiburg; host or cells: baculovirus-infected insect cells (Sf9)
Nature of the assay: CDK2/CycE Kinase Assay. Type of assay: biochemical. To be noted: histone IIIS substrate, 33P-ATP, 15 minutes at 22° C. Here is the method: Recombinant CDK2- and CycE-GST-fusion proteins, purified from baculovirus-infected insect cells (Sf9), were purchased by ProQinase GmbH, Freiburg. Histone IIIs, which was used as a kinase substrate, was purchased by the Sigma Company.
CDK2/CycE (50 ng/measuring point) was incubated for 15 minutes at 22° C. in the presence of various concentrations of test substances (0 μm, as well as within the range of 0.01-100 μm) in assay buffer [50 mmol of tris/HCl, pH 8.0, 10 mmol of MgCl2, 0.1 mmol of Na ortho-vanadate, 1.0 mmol of dithiothreitol, 0.5 μm of adenosine triphosphate (ATP), 10 μg/measuring point of histone IIIS, 0.2 μCi/measuring point of ^33P-gamma ATP, 0.05% NP40, 12.5% dimethyl sulfoxide]. The reaction was stopped by adding EDTA solution (250 mmol, pH 8.0, 14 μl/measuring point).
From each reaction batch, 10 μl was applied to P30 filter strips (Wallac Company), and non-incorporated ^33P-ATP was removed by subjecting the filter strips to three washing cycles for 10 minutes each in 0.5% phosphoric acid. After the filter strips were dried for one hour at 70° C., the filter strips were covered with scintillator strips (MeltiLex™ A, Wallac Company) and baked for one hour at 90° C. The amount of incorporated ^33P (substrate phosphorylation) was determined by scintillation measurement in a gamma-radiation measuring device (Wallac).

The test system of assay [3] is DU 145, hormone-independent human prostate cancer cells. Nature of the assay: Proliferation assay, DU145. The format is cell-based. The following applies: DU-145, 96 h, 4 days incubation, crystal violet. The text has this: (§2) Cultivated human tumor cells (MCF7, hormone-independent human breast cancer cells, related to ATCC HTB22; NCI-H460, human non-small-cell lung cancer cells, ATCC HTB-177, HCT 116, human colon cancer cells, ATCC CCL-247; DU 145, hormone-independent human prostate cancer cells, ATCC HTB-81; MaTu-MDR, hormone-independent, multiple pharmaceutical agent-resistant human breast cancer cells, EPO-GmbH, Berlin) were flattened out at a density of about 5000 cells/measuring point, depending on the growth rate of the respective cells, in a 96-well multititer plate in 200 μl of the corresponding growth medium. After 24 hours, the cells of one plate (zero-point plate) were colored with crystal violet (see below), while the medium of the other plates was replaced by fresh culture medium (200 μl), to which the test substances were added in various concentrations (0 μm, as well as in the range of 0.01-30 μm; the final concentration of the solvent dimethyl sulfoxide was 0.5%). The cells were incubated for 4 days in the presence of test substances. The cell proliferation was determined by coloring the cells with crystal violet: the cells were fixed by adding 20 μl/measuring point of an 11% glutaric aldehyde solution for 15 minutes at room temperature. After three washing cycles of the fixed cells with water, the plates were dried at room temperature. The cells were colored by adding 100 μl/measuring point of a 0.1% crystal violet solution (the pH was set at 3 by adding acetic acid). After three washing cycles of the colored cells with water, the plates were dried at room temperature. The dye was dissolved by adding 100 μl/measuring point of a 10% acetic acid solution. The extinction was determined by photometry at a wavelength of 595 nm. The change of cell growth, in percent, was calculated by normalization of the measured values to the extinction values of the zero-point plate (=0%) and the extinction of the untreated (0 μm) cells (=100%).

Assay [4] relates to MaTu-ADR. Nature of the assay: Proliferation assay, MaTu-ADR. The format is cell-based. The following applies: Homo sapiens, 96 h, MaTu-ADR cells, 4 days incubation, crystal violet.
From the text: as §2

Assay [5] relates to NCI-H460, human non-small-cell lung cancer cells. Nature of the assay: Proliferation assay, H460. The format is cell-based. To be noted: NCI-H460, 96 h, 4 days incubation, crystal violet.
From the text: as §2

Assay [6] deals with T3, VEGF receptor tyrosine kinase-2 (Homo sapiens, UniProt P35968).
T3 construct: GST; made in house; host or cells: baculovirus-infected insect cells (Sf9)
T3 sequence (P35968 20-1356): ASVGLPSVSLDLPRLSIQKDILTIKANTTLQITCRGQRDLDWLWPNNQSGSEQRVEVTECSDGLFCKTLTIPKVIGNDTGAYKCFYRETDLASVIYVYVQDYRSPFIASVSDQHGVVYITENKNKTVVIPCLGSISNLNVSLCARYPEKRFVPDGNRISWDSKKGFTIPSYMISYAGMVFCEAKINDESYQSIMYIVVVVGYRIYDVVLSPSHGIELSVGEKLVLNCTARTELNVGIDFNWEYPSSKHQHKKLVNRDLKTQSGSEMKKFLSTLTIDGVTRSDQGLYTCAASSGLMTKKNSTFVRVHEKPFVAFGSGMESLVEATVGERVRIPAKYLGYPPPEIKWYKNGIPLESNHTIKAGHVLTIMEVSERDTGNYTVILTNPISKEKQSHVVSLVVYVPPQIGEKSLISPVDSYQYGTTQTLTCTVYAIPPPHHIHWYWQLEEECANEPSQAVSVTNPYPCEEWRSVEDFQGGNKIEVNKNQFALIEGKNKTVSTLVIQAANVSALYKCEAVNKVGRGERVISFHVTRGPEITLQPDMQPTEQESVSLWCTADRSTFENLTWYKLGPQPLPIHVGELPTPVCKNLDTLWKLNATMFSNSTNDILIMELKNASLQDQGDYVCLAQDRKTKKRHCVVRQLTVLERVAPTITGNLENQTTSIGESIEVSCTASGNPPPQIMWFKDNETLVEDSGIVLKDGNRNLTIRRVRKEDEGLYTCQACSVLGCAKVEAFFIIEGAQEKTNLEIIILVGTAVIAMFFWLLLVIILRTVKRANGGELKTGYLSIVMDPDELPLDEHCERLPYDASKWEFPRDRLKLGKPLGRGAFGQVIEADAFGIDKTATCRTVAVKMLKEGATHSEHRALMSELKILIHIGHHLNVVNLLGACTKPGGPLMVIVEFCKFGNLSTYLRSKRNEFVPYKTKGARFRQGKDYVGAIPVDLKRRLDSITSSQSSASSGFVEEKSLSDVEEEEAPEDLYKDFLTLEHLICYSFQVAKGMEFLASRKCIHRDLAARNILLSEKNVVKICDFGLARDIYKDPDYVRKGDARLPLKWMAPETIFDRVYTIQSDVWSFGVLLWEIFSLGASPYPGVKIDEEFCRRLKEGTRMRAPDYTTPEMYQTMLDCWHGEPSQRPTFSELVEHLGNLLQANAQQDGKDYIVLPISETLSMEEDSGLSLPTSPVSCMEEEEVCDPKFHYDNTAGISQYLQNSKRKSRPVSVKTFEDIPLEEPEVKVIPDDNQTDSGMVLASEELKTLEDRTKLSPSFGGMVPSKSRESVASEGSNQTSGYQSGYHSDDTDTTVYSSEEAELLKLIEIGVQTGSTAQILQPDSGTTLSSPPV
Nature of the assay: VEGF Receptor-2 Kinase Assay. The format is biochemical. The following applies: poly-(Glu4Tyr) substrate, 33P-ATP, 10 minutes at 22° C.; read-out: VEGF-R2 IC50. As for the experimental part:
VEGF Receptor-2 Kinase Assay
Recombinant VEGF receptor tyrosine kinase-2 was purified as a GST fusion protein from baculovirus-infected insect cells (Sf9). Poly-(Glu4Tyr), which was used as a kinase substrate, was purchased by the Sigma Company.
VEGF receptor tyrosine kinase (90 ng/measuring point) was incubated for 10 minutes at 22° C. in the presence of various concentrations of test substances (0 μm, as well as within the range of 0.001-30 μm) in 30 μl of assay buffer [40 mmol of Tris/HCl, […], 10 mmol of MgCl2, 1 mmol of MnCl2, 3 μmol of Na ortho-vanadate, 1.0 mmol of dithiothreitol, 8 μmol of adenosine trisphosphate (ATP), 27 μg/measuring point of poly-(Glu4Tyr), 0.2 μCi/measuring point of 33P-gamma ATP, 1% dimethyl sulfoxide]. The reaction was stopped by adding EDTA solution (250 mmol, pH 7.0, 10 μl/measuring point).
as §1

For assay [7], the system named is MCF7, hormone-independent human breast cancer cells. Nature of the assay: Proliferation assay, MCF7. The format is cell-based. The following applies: MCF7, 96 h, 4 days incubation, crystal violet.
From the text: as §2

Where only a bound is given, the exact number is not on record here.

T1 sequence (P06493 whole entry): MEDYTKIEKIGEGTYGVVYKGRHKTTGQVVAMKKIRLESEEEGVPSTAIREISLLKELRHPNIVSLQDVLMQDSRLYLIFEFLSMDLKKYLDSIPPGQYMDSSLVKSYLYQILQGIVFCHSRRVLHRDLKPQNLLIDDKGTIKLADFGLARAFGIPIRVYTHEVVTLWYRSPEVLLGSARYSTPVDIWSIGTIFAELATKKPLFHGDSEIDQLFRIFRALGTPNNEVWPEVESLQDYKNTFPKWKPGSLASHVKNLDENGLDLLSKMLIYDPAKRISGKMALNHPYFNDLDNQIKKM
T1 sequence (P14635 whole entry partner): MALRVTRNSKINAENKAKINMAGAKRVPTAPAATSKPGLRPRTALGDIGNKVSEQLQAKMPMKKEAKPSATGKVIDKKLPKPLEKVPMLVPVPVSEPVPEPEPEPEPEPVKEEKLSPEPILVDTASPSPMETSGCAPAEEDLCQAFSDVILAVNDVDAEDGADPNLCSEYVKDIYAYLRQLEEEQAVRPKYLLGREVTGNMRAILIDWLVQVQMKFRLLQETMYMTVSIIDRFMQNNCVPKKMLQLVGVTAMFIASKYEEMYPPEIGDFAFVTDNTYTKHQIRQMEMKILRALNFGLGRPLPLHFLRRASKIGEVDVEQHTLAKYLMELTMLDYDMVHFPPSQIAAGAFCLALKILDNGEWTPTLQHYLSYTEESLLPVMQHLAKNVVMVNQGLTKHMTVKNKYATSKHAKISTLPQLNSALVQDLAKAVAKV

For orientation: IC50 means the midpoint of a concentration-inhibition curve. Turning to `C[C@@H](Nc1nc(Nc2ccc(S(=N)(=O)CC3CC3)cc2)ncc1Br)C(C)(C)O` (mixture of isomers) [Example 1.9, (RS)-S-[4-({5-bromo-4-[(R)-(2-hydroxy-1,2-dimethylpropyl)amino]pyrimidin-2-yl}amino)phenyl]-S-(cyclopropylmethyl)sulfoximide], the IC50 in assay [1] stood at 5 nM; in assay [2], 4 nM; in assay [3], 100 nM; in assay [4], 100 nM; in assay [5], 110 nM; in assay [6], 49 nM. The same compound showed an IC50 in assay [7] of 100 nM.

In the case of `C[C@@H](Nc1nc(Nc2ccc(S(=O)(=NS(=O)(=O)CC[Si](C)(C)C)C3CCCC3)cc2)ncc1Br)C(C)(C)O` (mixture of isomers) [Example 1.10, (RS)-S-[4-({5-bromo-4-[(R)-(2-hydroxy-1,2-dimethylpropyl)amino]pyrimidin-2-yl}amino)phenyl]-S-cyclopentyl-N-[2-(trimethylsilyl)ethylsulfonyl]sulfoximide], the IC50 in assay [1] is greater than 1000 nM; in assay [2], greater than 1000 nM; in assay [3], 800 nM; in assay [4], 800 nM; in assay [5] it was 700 nM; in assay [6], 910 nM. In assay [7], the IC50 is 500 nM.

On to `C[C@@H](Nc1nc(Nc2ccc(S(=N)(=O)C3CCCC3)cc2)ncc1Br)C(C)(C)O` (mixture of isomers) [Example 1.11, (RS)-S-[4-({5-bromo-4-[(R)-(2-hydroxy-1,2-dimethylpropyl)amino]pyrimidin-2-yl}amino)phenyl]-S-cyclopentylsulfoximide], for which the 50% inhibitory concentration (IC50) in assay [1] is 44 nM; in assay [2], 25 nM; in assay [3], less than 100 nM; in assay [4], 100 nM; in assay [5], less than 100 nM; in assay [7] it was 100 nM.

In the case of `C[C@@H](Nc1nc(Nc2ccc(S(=O)(CCO)=NS(=O)(=O)CC[Si](C)(C)C)cc2)ncc1Br)C(C)(C)O` (mixture of isomers) [Example 1.12, (RS)-S-[4-({5-bromo-4-[(R)-(2-hydroxy-1,2-dimethylpropyl)amino]pyrimidin-2-yl}amino)phenyl]-S-(2-hydroxyethyl)-N-[2-(trimethylsilyl)ethylsulfonyl]sulfoximide], the IC50 was 160 nM in assay [1]; 49 nM in assay [2]; 300 nM in assay [3]; 2800 nM in assay [4]; 400 nM in assay [5]; 160 nM in assay [6]. In addition, the IC50 in assay [7] was determined as 200 nM.

For the compound `COc1cc(Nc2ncc(Br)c(N[C@H](C)C(C)(C)O)n2)ccc1S(C)(=N)=O` (mixture of isomers) [Example 1.23, (RS)-S-[4-({5-bromo-4-[(R)-(2-hydroxy-1,2-dimethylpropyl)amino]pyrimidin-2-yl}amino)-2-methoxyphenyl]-S-methyl sulfoximide], the IC50 is 6 nM in assay [2]; 100 nM in assay [3]; less than 100 nM in assay [4]; less than 100 nM in assay [5]; 75 nM in assay [6]; 130 nM in assay [7].

Take `CCOC(=O)N=S(=O)(CC)c1ccc(Nc2ncc(Br)c(O[C@H](C)[C@@H](C)O)n2)cc1` (mixture of isomers) [Example 1.39, (RS)-S-[4-({5-bromo-4-[(1R,2R)-2-hydroxy-1-methylpropoxy]pyrimidin-2-yl}amino)phenyl]-N-(ethoxycarbonyl)-S-ethyl sulfoximide]: the half-inhibitory concentration (IC50) in assay [1] was 49 nM; in assay [2], 19 nM; in assay [3], 300 nM; in assay [4], 900 nM; in assay [5], 300 nM; in assay [7] it was 300 nM.

For `CCC(Sc1nc(Nc2ccc(S(C)(=N)=O)cc2)ncc1Br)C(C)O` (racemic) [Example 3.6, (RS)-S-[4-({5-bromo-4-[(RS,RS)-(1-ethyl-2-hydroxypropyl)sulfanyl]pyrimidin-2-yl}amino)phenyl]-S-methyl sulfoximide], the half-maximal inhibitory concentration (IC50) in assay [1] came out at 22 nM; in assay [2] it was 18 nM; in assay [3], 20 nM; in assay [4] it was 20 nM; in assay [5], 20 nM; in assay [7], 80 nM.

Source of the values: patent US7338958B2, “Sulfoximine-substituted pyrimidines as CDK-and/or VEGF inhibitors, their production and use as pharmaceutical agents” (Schering AG, priority 2003, dated 2008).
